# Reference: US12103941B2, “Radiation-activatable platinum complex, its preparation and therapeutic use” (City University of Hong Kong, priority 2022, dated 2024)
# Columns and labels:
# [1] = Photo-activation of complex 1 by 808 nm laser, HPLC; format: physicochemical; conditions: 10 μM in PBS (1% DMF), 5 mM ascorbate, laser 808 nm, 3.3 mW/cm^2, 15 min
# Method: The inventors have further investigated if complex 1 could be activated by other types of radiation such as EM radiation, in particular light such as infrared light. A PBS buffer solution (with 1% DMF) containing 10 μM complex 1 with 5 mM ascorbate in a quartz cuvette was irradiated with a laser (808 nm, 3.3 mW/cm^2) for 15 min under stirring. The sample was analysed by HPLC. […] In view of the similar profiles, the inventors believe that complex 1 would also release singlet oxygen upon photo-activation along with the aforementioned photo-induced reduction.
# [2] = test system: different cancer cell lines (MCF-7, HeLa, 4T1, A549, A549cisR, A2780, A2780cisR); test: Cytotoxicity, MTT assay, all tested cancer cell lines (FIG. 9); format: cell-based
# Method: (§1) The biological activity of complex 1 was evaluated. Human breast carcinoma MCF-7 cells, human cervix carcinoma HeLa cells, mammary breast carcinoma 4T1 cells, human lung carcinoma A549 cells, and cisplatin-resistant A549cisR cells were cultured in DMEM containing 10% FBS and 100 IU mL^−1 penicillin/streptomycin. Human ovarian carcinoma A2780 and A2780cisR cells were cultured in RPMI-1640 containing 10% FBS, 2 mM L-glutamine, and 100 IU mL^−1 penicillin/streptomycin. Human lung fibroblast MRC-5 cells were cultured in MEM containing 10% FBS, 1% NEAA, 1% L-Glutamine, 1% sodium pyruvate, and 100 IU mL^−1 penicillin/streptomycin. In every two passages of A2780cisR and A549cisR cells, 5 μM of cisplatin was added to maintain the platinum resistance. All the cells were cultured in humidified incubators at 37° C. with 5% CO2. Cell counting was performed with a hemocytometer. Cytotoxicity test was performed by exposing the cancer cells with complex 1. The viability of cancer cells exposed was evaluated by means of MTT assay. Specifically, the cells were first pre-seeded in 6-well plates until the confluency reached 80%. Then, the medium was removed and replaced with fresh medium containing different concentrations of complex 1 with 0.5% DMF (0, 2.5, 5, 12.5, 25, or 40 μM). After 30 min, the medium was aspirated, the well was washed with PBS for three times. […]
# [3] = Sono-activation (sono-induced reduction) of complex 1 in PBS, HPLC; format: physicochemical; conditions: 4 W
# Method: The sono-activation property of complex 1 was investigated. A PBS solution (with 1% DMF) containing 10 μM complex 1 with or without 5 mM sodium ascorbate (i.e. the sample), was continuously treated with ultrasound (1.75 MHz, 4 W) for a total period of time of 60 min. The sample temperature was monitored with an FLIR thermographic camera and maintained at 37° C. throughout the experiment. […] (FIGS. 6C to 6E), indicating the reduction of Pt(IV) to Pt(II) along with the dissociation of the axial ligand 1 and hydroxide ligand upon sono-activation (i.e. complex 1 undergoes a sono-induced reduction).
# [4] = Stability of complex 1 in the dark (HPLC); format: physicochemical; conditions: 10 μM, PBS pH 7.4, RPMI-1640 culture medium and A2780 cell lysate, no radiation
# Method: The stability of complex 1, i.e., complex 1 in phosphate buffer saline (PBS) buffer, cell culture medium such as RPMI-1640, and cell lysate in the dark (i.e., in the absence of radiation) was determined. To determine the stability of complex 1 in PBS, complex 1 (10 μM) was dissolved in PBS buffer (pH 7.4, 1% DMF) and incubated at 310 K in the dark. At 24 h, the sample was analyzed by HPLC to determine the percentage of Pt(IV) remained. To determine the stability of complex 1 in complete RPMI-1640 culture medium (containing 10% FBS, 2 mM L-Glutamine, and 100 IU mL^−1 penicillin/streptomycin) or cell lysate (from A2780 cells by 1% triton X-100 lysis, protein concentration adjusted to 1.5 mg mL^−1), complex 1 was dissolved in these two solutions, respectively (with 1% DMF). At determined time intervals, 50 μL of samples were taken out and diluted with 200 μL MeOH with subsequent centrifugation at 14,000×g to remove proteins, and then the supernatant was analyzed by HPLC.
# [5] = test system: HeLa cells; test: Cytotoxicity, MTT assay, HeLa cells; format: cell-based, human; conditions: IC50 without vs with radiation
# Method: as §1
# [6] = test system: Human lung fibroblast MRC-5 cells; test: Cell viability of normal MRC-5 cells (FIG. 10); format: cell-based; conditions: absence of ultrasound, 24 h
# Method: as §1
structure (smiles),measurement,setting,value
"CCCN1/C(=C/C=C2\CCCC(/C=C/C3=[N+](CCC)c4ccccc4C3(C)C)=C2Oc2ccc(CCC(=O)[O][Pt]3([NH2])([NH2])([OH])[O]C(=O)C4(CCC4)C(=O)[O]3)cc2)C(C)(C)c2ccccc21 [complex 1, cyaninplatin]",photo-activation / photo-induced reduction to Pt(II) complex,[1],can be photo-activated
same,activity on tested cells upon ultrasound treatment,"[2]; ultrasound 3.5 W, 15 min",very active
same,toxicity to tested cells without ultrasound treatment,[2]; without the ultrasound treatment,generally non-toxic
same,complex 1 reduced (to Pt(II)) after sono-activation,"[3]; 10 μM in PBS (1% DMF), 5 mM ascorbate, ultrasound 1.75 MHz, about 60 min, 37° C.",about 95%
same,conditions required for sono-induced reduction,"[3]; 10 μM in PBS, with or without 5 mM ascorbate, with or without ultrasound 1.75 MHz",only occurs under the condition where both ascorbate and ultrasound are present
same,time complex is stable in the dark (single HPLC peak),[4],≥ 6 h
same,enhancement of cytotoxicity upon exposure to radiation,[5],about 6 times
same,toxicity to normal MRC-5 cells,[6],non-toxic
